Results from patent publication US20220400669A1, “COMPOUNDS AND METHODS FOR PROMOTING PLANT GROWTH” (King Abdullah University of Science and Technology, priority 2019, published 2022).
“Also recorded” adds a separate entry of the source.

Tests used:
Type in all cases: in vivo
Striga hermonthica seeds = experiment: Striga hermonthica seed germination bioassay with root exudates of treated rice seedlings
Method: For SL analysis, one-week-old seedlings were transferred into 50 ml falcon tubes (two seedlings per tube), containing half-strength Hoagland nutrient solution with K2HPO4.2H2O (+Pi), and grown in the biochamber for one week. Rice seedlings were then subjected to phosphate deficiency (−Pi) for another one week. On the day of root exudates collection, rice seedlings were first treated with 5 μM Zaxinone, or MZ compounds for 6 h, and then root exudates and root tissues were collected from each tube for LC-MS/MS analysis and Striga bioassays. Striga hermonthica seed germination bioassays were conducted by following the procedure as described previously. About 50-100 sterilized Striga seeds were spread on a glass fiber filter paper disc. Then 12 discs with Striga seeds were put on a sterilized filter paper, moistened with 3 ml sterilized water in a 90 mm petri plate. The plates were sealed with parafilm and cover with aluminum foil. All the plates were kept at 30° C. for 10 days for pre-conditioning. On 11th day, six dry discs with pre-conditioned seeds were selected and put in a 90 mm petri-dish. A filter paper ring moistened with 0.9 ml sterile MilliQ water was placed in the plate. The root exudates collected from Zaxinone or MZ compounds treated rice seedlings was applied at 50 μl on each six disc. Sterile MilliQ water and standard SL analog GR24 (2.5 μM) were included as a negative and positive control, respectively. After application, Striga seeds were incubated in dark at 30° C. for 24 hours. Germination (seeds with radicle emerging through seed coat) was scored under a binocular microscope, and germination rate (%) was calculated.

[1] = system: SL biosynthesis genes D27, CCD7, CCD8, CO; experiment: qRT-PCR transcript analysis of SL biosynthesis genes in rice roots; settings: 5 μM
Method: For transcript analysis, one-week-old seedlings were grown hydroponically in half-strength modified Hoagland nutrient solution with K2HPO4.2H2O (+Pi) and without K2HPO4.2H2O (+Pi) (−Pi) for 7 days. Seedlings were further treated with zaxinone or MZ compounds for 6 h, and tissues were collected.
Roots of rice seedling were ground and homogenized in liquid nitrogen, and total RNA was isolated using a Direct-zol RNA Miniprep Plus Kit following the manufacturer's instructions (ZYMO RESEARCH; USA). cDNA was synthesized from 1 μg of total RNA using iScript cDNA Synthesis Kit (BIO-RAD Laboratories, Inc, 2000 Alfred Nobel Drive, Hercules, Calif.; USA) according to the instructions in the user manual. The gene expression level was detected by real-time quantitative RT-PCR (qRT-PCR) which was performed using SYBR Green Master Mix (Applied Biosystems; www.lifetechnologies.com) in a CFX384 Touch™ Real-Time PCR Detection System (BIO-RAD Laboratories, Inc, 2000 Alfred Nobel Drive, Hercules, Calif.; USA). The gene expression level was calculated by normalization of a housekeeping gene in rice, Ubiquitin (OsUBQ) (Table 1). The relative gene expression level was calculated according to 2-^ΔΔCT method.

[2] = system: strigolactones (4-deoxyorobanchol, orobanchol) content; experiment: LC-MS/MS quantification of SLs in rice root tissues; settings: Pi-starved WT rice, 5 μM, 6 hours
Method: For SL analysis, one-week-old seedlings were transferred into 50 ml falcon tubes (two seedlings per tube), containing half-strength Hoagland nutrient solution with K2HPO4.2H2O (+Pi), and grown in the biochamber for one week. Rice seedlings were then subjected to phosphate deficiency (−Pi) for another one week. On the day of root exudates collection, rice seedlings were first treated with 5 μM Zaxinone, or MZ compounds for 6 h, and then root exudates and root tissues were collected from each tube for LC-MS/MS analysis and Striga bioassays.
For the quantification of SLs in rice root, plant tissue material was lyophilized and grinded. Approximately 20 mg root tissue spiked with 0.672 ng of D6-5-deoxystrigol was extracted with 2 ml of ethyl acetate in an ultrasound bath (Branson 3510 ultrasonic bath) for 15 min, followed by centrifugation for 8 min at 3800 rpm at 4° C. The supernatant was collected and the pellet was re-extracted with 2 ml of ethyl acetate. Then the two supernatants were combined and dried under vacuum. The residue was dissolved in 100 μl of ethyl acetate and 2 ml of hexane. The resulting extract solution was loaded on a Silica gel SPE column (500 mg/3 ml) preconditioned with 3 ml of ethyl acetate and 3 ml of hexane. […] 4-deoxyorobanchol was analyzed by using HPLC-Q-Trap-MS/MS with MRM mode. […]

[3] = system: zas mutant and Nipponbare wild-type rice seedlings; experiment: Hydroponic rice growth, zas mutant rescue and tillering; settings: hydroponic system, 2.5 μM
Method: For rescuing zas mutant phenotypes and investigating the effect of the compounds MZ3 and MZ5 on different genotypes, one week-old seedlings were grown hydroponically in half-strength modified Hoagland nutrient solution containing K2HPO4.2H2O (+Pi), 2.5 μM and 5 μM zaxinone or compounds (MZ2-MZ5) (dissolved in 0.1% acetone) or the corresponding volume of the solvent (control) for 21 days (i.e. 3 weeks). The solution was changed every other day, adding the chemical at each renewal.

[4] = system: tomato plant (c.v. Money maker); experiment: Foliar application on tomato plants; settings: 5 μM foliar application
Method: Tomato seeds (c.v. Money maker) were sterilized and pre-germinated on moistened filter paper at 22° C. for 4-5 days, transferred to light for 3-4 days or direct sowed of seeds from fresh tomatoes in soils at 25° C. Most uniform seedlings (10 days old) were selected and transferred to pots. After one week of the transfer, 5 μM compounds were used for foliar application. Each compound was applied three times in a week up to four weeks: 20 mL per pot (spray as runoff) in first 3 weeks, and 40 mL per pot in last 4th week. The plants were grown under normal growth condition (27° C., 70% RH).

COc1ccc(Oc2cccc(/C=C/C(C)=O)c2)cc1 [MZ3, (E)-4-(3-(4-methoxyphenoxy)phenyl)but-3-en-2-one]
lowering of Striga seed germinating activity of collected exudates (Striga hermonthica seeds; exudates of Pi-starved WT rice seedlings exposed to 5 μM for 6 hours (FIG. 10)): around 40%
decrease of Striga seed germination rate (Striga hermonthica seeds; exudates of rice seedlings treated with 5 μM compound, Pi starvation (FIG. 2)): ~45%
CCD7 and CO transcript level compared with Zaxinone ([1]; wild-type rice roots, Pi starvation, 6 h (FIGS. 12A-12D)): significantly lower
transcript levels of SL biosynthesis enzymes D27, CCD7, CCD8 and CO ([1]; wild-type rice seedlings, Pi-starvation, 6 h): strongest inhibition; also recorded: pronounced decrease
Oro content in roots ([2]; control 0.6): 0.1 pgmg-1dry-root-weight
4DO content in roots ([2]; control 2.5): 0.5 pgmg-1dry-root-weight
root length of wild-type plants relative to zaxinone [3]: more active than zaxinone
plant height, branch, flowers and fruit numbers compared to zaxinone [4]: strongly increased
